Each block holds one compound with its values, some of them ahead of it.
How the values were obtained:
Experiment in all cases: biochemical
Set-up in all cases: KINOMEscan (DiscoverX) competition binding screen of 97 human kinases, percent of control at 10 uM
[1] = molecular target: PDPK1 (Homo sapiens, UniProt O15530)
Procedure: (§1) The KINOMEscan profiling of the inhibitors were performed as per directions by the manufacturer (DiscoverX) against a panel of human protein kinases.

[2] = molecular target: AURKA (Homo sapiens, UniProt O14965)
Procedure: as §1

[3] = molecular target: PIK3CG (Homo sapiens, UniProt P48736)
Procedure: as §1

[4] = molecular target: BRAF(V600E) (Homo sapiens, UniProt P15056, V600E)
Procedure: as §1

[5] = molecular target: AKT2 (Homo sapiens, UniProt P31751)
Procedure: as §1

[6] = molecular target: MAP3K4 (Homo sapiens, UniProt Q9Y6R4)
Procedure: as §1

[7] = molecular target: PDGFRB (Homo sapiens, UniProt P09619)
Procedure: as §1

[8] = molecular target: PRKCE (Homo sapiens, UniProt Q02156)
Procedure: as §1

[9] = molecular target: RET (Homo sapiens, UniProt P07949)
Procedure: as §1

[10] = molecular target: CHEK1 (Homo sapiens, UniProt O14757)
Procedure: as §1

[11] = molecular target: MET (Homo sapiens, UniProt P08581)
Procedure: as §1

[12] = molecular target: CSF1R (Homo sapiens, UniProt P07333)
Procedure: as §1

[13] = molecular target: FGFR2 (Homo sapiens, UniProt P21802)
Sequence of FGFR2 (P21802 whole entry): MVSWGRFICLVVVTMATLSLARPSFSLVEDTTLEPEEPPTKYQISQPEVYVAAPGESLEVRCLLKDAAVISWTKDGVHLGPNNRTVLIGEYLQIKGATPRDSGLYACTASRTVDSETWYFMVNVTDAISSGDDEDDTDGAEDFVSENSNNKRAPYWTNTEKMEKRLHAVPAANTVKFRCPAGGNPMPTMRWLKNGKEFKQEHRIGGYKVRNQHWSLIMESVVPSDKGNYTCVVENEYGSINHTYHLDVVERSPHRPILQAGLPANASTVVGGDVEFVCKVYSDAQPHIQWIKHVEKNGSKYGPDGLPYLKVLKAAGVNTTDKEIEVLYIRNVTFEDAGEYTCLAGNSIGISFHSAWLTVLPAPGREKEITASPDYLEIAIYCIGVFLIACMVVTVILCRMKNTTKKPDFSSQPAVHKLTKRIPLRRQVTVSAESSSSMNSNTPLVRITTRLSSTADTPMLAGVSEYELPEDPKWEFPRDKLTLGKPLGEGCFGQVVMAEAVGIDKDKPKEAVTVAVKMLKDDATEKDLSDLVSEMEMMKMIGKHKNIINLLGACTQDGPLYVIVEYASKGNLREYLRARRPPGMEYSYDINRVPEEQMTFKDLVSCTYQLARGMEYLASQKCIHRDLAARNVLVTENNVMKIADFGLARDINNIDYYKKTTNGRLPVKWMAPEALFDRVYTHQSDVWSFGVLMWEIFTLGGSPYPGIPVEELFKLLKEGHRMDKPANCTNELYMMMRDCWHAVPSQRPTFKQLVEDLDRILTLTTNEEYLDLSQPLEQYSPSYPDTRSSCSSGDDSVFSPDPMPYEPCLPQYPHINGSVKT
Procedure: as §1

[14] = molecular target: ERBB4 (Homo sapiens, UniProt Q15303)
Sequence of ERBB4 (Q15303 whole entry): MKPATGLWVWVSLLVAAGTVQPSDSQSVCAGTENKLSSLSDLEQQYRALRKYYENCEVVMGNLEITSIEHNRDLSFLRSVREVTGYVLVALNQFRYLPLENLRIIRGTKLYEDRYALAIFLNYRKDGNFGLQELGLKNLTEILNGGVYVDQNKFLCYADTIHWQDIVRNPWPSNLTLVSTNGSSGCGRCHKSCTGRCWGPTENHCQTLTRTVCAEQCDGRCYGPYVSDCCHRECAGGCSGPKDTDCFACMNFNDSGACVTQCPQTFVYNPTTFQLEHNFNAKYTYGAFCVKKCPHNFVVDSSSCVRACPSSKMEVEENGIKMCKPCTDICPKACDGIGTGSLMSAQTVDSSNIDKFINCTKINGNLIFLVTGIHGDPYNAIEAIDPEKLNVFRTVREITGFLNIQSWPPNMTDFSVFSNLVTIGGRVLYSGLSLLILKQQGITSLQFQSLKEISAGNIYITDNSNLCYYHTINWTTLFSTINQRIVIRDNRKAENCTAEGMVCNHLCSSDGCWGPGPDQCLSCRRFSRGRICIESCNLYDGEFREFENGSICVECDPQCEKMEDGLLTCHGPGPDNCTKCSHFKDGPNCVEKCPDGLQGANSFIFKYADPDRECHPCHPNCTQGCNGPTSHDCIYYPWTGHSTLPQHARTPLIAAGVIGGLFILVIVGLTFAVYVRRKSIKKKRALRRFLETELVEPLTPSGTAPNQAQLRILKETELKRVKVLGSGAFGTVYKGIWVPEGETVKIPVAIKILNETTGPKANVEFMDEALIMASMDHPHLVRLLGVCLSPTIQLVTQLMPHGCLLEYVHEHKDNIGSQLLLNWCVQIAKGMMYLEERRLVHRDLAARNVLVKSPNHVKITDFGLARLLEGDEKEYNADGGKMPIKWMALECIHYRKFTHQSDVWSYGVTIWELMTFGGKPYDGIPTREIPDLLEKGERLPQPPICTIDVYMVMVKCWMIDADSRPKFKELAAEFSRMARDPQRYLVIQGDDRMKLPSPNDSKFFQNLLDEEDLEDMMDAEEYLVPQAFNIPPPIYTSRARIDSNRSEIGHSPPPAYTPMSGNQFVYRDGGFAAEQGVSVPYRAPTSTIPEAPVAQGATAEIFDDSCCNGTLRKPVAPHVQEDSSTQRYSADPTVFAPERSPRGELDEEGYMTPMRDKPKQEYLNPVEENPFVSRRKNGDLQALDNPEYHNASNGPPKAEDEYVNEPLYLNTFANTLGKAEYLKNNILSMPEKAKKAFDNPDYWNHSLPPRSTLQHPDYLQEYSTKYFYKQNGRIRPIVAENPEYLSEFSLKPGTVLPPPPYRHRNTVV
Procedure: as §1

[15] = molecular target: T1, ERK1 (Homo sapiens, UniProt P27361)
T1 construct: gene MAPK3
Procedure: as §1

[16] = molecular target: PIM1 (Homo sapiens, UniProt P11309)
Procedure: as §1

[17] = molecular target: T2, MLK1 (Homo sapiens, UniProt P80192)
T2 construct: gene MAP3K9
T2 sequence (P80192 whole entry): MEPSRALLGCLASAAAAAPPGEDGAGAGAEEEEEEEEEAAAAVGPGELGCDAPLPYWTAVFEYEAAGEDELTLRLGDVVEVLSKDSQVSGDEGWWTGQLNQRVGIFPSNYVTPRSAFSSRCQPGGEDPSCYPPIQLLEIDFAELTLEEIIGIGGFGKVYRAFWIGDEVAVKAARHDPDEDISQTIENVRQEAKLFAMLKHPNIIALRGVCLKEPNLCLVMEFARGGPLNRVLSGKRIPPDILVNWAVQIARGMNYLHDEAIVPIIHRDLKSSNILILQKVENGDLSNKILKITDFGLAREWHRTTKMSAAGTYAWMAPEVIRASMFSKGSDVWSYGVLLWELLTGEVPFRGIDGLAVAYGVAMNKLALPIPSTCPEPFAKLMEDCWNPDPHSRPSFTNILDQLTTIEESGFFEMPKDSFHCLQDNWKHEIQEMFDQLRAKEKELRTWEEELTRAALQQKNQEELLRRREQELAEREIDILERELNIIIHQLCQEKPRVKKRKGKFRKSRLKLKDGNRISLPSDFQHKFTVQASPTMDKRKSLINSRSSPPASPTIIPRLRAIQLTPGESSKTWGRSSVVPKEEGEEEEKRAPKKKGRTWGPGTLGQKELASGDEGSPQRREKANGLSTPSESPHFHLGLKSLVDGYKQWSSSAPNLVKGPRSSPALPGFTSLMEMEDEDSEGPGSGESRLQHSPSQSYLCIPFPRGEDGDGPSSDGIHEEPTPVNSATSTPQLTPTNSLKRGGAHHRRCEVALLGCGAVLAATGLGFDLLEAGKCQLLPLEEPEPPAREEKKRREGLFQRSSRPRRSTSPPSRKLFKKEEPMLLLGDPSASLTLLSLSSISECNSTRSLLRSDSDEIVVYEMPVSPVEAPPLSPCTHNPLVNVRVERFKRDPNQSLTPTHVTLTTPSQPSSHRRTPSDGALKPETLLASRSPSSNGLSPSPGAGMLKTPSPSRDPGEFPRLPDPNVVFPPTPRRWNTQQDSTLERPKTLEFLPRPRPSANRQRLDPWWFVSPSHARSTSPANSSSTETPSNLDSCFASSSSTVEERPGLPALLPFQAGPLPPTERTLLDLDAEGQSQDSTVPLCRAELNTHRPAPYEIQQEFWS
Procedure: as §1

[18] = molecular target: SRC (Homo sapiens, UniProt P12931)
Sequence of SRC (P12931 whole entry): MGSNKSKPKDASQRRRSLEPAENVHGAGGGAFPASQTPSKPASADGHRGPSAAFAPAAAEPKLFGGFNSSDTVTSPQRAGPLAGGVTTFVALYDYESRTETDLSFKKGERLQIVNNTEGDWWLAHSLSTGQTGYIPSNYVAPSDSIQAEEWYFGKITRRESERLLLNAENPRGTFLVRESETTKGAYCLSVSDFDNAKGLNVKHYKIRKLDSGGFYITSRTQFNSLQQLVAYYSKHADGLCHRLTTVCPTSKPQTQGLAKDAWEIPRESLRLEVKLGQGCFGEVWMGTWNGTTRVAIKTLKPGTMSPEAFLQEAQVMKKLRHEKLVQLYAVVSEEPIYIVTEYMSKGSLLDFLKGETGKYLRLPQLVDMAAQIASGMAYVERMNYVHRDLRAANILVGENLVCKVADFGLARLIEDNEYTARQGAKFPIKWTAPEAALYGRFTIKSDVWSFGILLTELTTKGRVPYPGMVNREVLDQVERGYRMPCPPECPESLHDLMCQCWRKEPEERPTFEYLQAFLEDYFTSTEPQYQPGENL
Procedure: as §1

[19] = molecular target: T3, TYK2(JH1domain-catalytic) (Homo sapiens, UniProt P29597)
T3 construct: JH1domain-catalytic
Procedure: as §1

[20] = molecular target: ACVR1B (Homo sapiens, UniProt P36896)
Procedure: as §1

[21] = molecular target: KIT(D816V) (Homo sapiens, UniProt P10721, D816V)
Procedure: as §1

[22] = molecular target: PLK3 (Homo sapiens, UniProt Q9H4B4)
Procedure: as §1

[23] = molecular target: T4, JAK3(JH1domain-catalytic) (Homo sapiens, UniProt P52333)
T4 construct: JH1domain-catalytic
T4 sequence (P52333 whole entry): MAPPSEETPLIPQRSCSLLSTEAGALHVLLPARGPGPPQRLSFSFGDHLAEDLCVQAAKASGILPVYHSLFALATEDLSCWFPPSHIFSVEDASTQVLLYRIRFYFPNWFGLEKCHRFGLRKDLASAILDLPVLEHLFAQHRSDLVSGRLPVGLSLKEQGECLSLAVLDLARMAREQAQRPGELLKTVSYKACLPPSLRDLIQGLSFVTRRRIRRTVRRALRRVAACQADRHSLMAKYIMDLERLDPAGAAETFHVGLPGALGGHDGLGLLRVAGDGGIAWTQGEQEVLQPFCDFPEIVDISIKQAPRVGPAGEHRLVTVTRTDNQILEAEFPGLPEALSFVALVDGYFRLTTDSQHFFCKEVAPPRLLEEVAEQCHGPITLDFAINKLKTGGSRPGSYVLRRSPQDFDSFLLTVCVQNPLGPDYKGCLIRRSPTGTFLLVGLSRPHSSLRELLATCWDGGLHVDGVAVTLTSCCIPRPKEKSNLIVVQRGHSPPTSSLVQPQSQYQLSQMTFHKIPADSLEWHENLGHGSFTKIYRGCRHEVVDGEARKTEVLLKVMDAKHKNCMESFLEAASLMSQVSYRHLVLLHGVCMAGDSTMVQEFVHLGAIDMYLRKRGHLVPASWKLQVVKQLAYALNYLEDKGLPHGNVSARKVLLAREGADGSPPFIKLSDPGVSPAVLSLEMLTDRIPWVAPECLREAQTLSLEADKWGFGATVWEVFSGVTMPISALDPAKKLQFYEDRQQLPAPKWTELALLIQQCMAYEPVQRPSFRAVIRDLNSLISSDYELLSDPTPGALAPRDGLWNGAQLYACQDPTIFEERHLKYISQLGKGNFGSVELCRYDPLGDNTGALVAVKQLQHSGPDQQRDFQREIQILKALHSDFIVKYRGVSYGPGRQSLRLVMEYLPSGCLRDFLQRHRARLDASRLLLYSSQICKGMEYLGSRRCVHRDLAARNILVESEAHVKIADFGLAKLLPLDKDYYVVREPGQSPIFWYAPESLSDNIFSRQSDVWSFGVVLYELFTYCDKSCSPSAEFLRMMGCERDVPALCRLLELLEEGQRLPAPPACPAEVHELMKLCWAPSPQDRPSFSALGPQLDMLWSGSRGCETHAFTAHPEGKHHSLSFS
Procedure: as §1

[24] = molecular target: PIK3CA (Homo sapiens, UniProt P42336)
Procedure: as §1

[25] = binding competition, % of control, read-out: RU-301 %Ctrl @ 10000nM
[26] = read-out: R428 %Ctrl @ 10000nM, binding competition

remaining binding at 10 µM [1, 25]: 99%
remaining binding at 10 µM [2, 25]: 89%
remaining binding at 10 µM [3, 25]: 100%
remaining binding at 10 µM [4, 25]: 94%
remaining binding at 10 µM [5, 25]: 100%
remaining binding at 10 µM [6, 25]: 100%
remaining binding at 10 µM [7, 25]: 91%
remaining binding at 10 µM [8, 25]: 91%
remaining binding at 10 µM [9, 25]: 97%
remaining binding at 10 µM [10, 25]: 83%
remaining binding at 10 µM [11, 25]: 88%
remaining binding at 10 µM [12, 25]: 90%
remaining binding at 10 µM [13, 25]: 100%
remaining binding at 10 µM [14, 25]: 83%
remaining binding at 10 µM [15, 25]: 100%
remaining binding at 10 µM [16, 25]: 82%
remaining binding at 10 µM [17, 25]: 100%
remaining binding at 10 µM [18, 25]: 96%
remaining binding at 10 µM [19, 25]: 55%
remaining binding at 10 µM [20, 25]: 96%
remaining binding at 10 µM [21, 25]: 100%
remaining binding at 10 µM [22, 25]: 91%
remaining binding at 10 µM [23, 25]: 95%
remaining binding at 10 µM [24, 25]: 100%
SMILES: Cc1cc(CSc2ccccc2C(=O)NCCNc2ccc(C(F)(F)F)cc2[N+](=O)[O-])on1 [RU-301]

percent of control binding at 10 µM [1, 26]: 34%
percent of control binding at 10 µM [2, 26]: 0.15%
percent of control binding at 10 µM [3, 26]: 21%
percent of control binding at 10 µM [4, 26]: 70%
percent of control binding at 10 µM [5, 26]: 100%
percent of control binding at 10 µM [6, 26]: 0.7%
percent of control binding at 10 µM [7, 26]: 0%
percent of control binding at 10 µM [8, 26]: 24%
percent of control binding at 10 µM [9, 26]: 0%
percent of control binding at 10 µM [10, 26]: 15%
percent of control binding at 10 µM [11, 26]: 9.4%
percent of control binding at 10 µM [12, 26]: 0.35%
percent of control binding at 10 µM [13, 26]: 30%
percent of control binding at 10 µM [14, 26]: 34%
percent of control binding at 10 µM [15, 26]: 100%
percent of control binding at 10 µM [16, 26]: 67%
percent of control binding at 10 µM [17, 26]: 2.2%
percent of control binding at 10 µM [18, 26]: 14%
percent of control binding at 10 µM [19, 26]: 17%
percent of control binding at 10 µM [20, 26]: 26%
percent of control binding at 10 µM [21, 26]: 0.15%
percent of control binding at 10 µM [22, 26]: 29%
percent of control binding at 10 µM [23, 26]: 0.2%
percent of control binding at 10 µM [24, 26]: 45%
SMILES: Nc1nc(Nc2ccc3c(c2)CC[C@@H](N2CCCC2)CC3)nn1-c1cc2c(nn1)-c1ccccc1CCC2 [R428]

Source: article PMC5341070, “Small molecule inhibitors block Gas6-inducible TAM activation and tumorigenicity” (Scientific Reports, 2017)
